In PubChem BioAssay (NCI) one finds TGI data, which are given here for eight compounds.

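A five-concentration, 48-hour dose response in 96-well plates underlies each endpoint, interpolated linearly between surrounding concentrations. At the TGI there is no net growth.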 Where only a bound is given, the exact number is not on record here.

Some test systems named below: A498 renal; ACHN renal; CAKI-1 renal; COLO 205 colon; HCT-15 colon; HOP-62 NSCLC; HS 578T breast; M14 melanoma; NCI-H226 lung; OVCAR-5 ovarian; RXF 393 renal; SK-MEL-5 melanoma; SK-OV-3 ovarian; SN12C renal; SNB-75 CNS; T-47D breast; UACC-257 melanoma.
What all share (test): NCI anticancer screen, dose series, 48 h

On to `CC(C)=CCC[C@@H](C)C1=C(O)C(Nc2ccccc2I)=C(C)C(=O)C1=O`, for which the TGI in the assay with A498 renal is 31.5 µM; with ACHN renal, 44 µM; in the assay with CAKI-1 renal, 41.3 µM; with COLO 205 colon, 33.1 µM; in the assay on HCT-15 colon, over 75 µM; in the assay with HOP-62 NSCLC, 23.1 µM. Besides, the TGI was 47.4 µM in the assay on HS 578T breast; over 58.9 µM with M14 melanoma; 18.4 µM with NCI-H226 lung; over 75 µM in the assay with OVCAR-5 ovarian; over 50 µM with RXF 393 renal; 23 µM in the assay with SK-MEL-5 melanoma. The TGI is 61.5 µM in the assay with SK-OV-3 ovarian; over 75 µM in the assay with SN12C renal; 37.1 µM in the assay on SNB-75 CNS; 47.5 µM in the assay with T-47D breast; 74.3 µM with UACC-257 melanoma.

`OC(NN=C1CCCC1)(C(F)(F)Cl)C(F)(F)Cl`: the TGI with A498 renal, in the assay with ACHN renal, in the assay on CAKI-1 renal, in the assay on COLO 205 colon, in the assay with HCT-15 colon and in the assay with HOP-62 NSCLC was over 10 µM each time. Further, the TGI in the assay with HS 578T breast, with M14 melanoma, with NCI-H226 lung, in the assay on OVCAR-5 ovarian, in the assay with RXF 393 renal and in the assay on SK-MEL-5 melanoma was over 10 µM each time. The TGI in the assay on SK-OV-3 ovarian, in the assay with SN12C renal, with SNB-75 CNS, in the assay on T-47D breast and with UACC-257 melanoma was over 10 µM in each case.

`COC(=O)Cn1cnc2c(Cl)nc(Nc3ccccc3)nc21`: the TGI was over 100 µM with A498 renal; over 100 µM in the assay on ACHN renal; over 100 µM in the assay with COLO 205 colon; 80.4 µM in the assay on HCT-15 colon; over 100 µM with HOP-62 NSCLC; 54.1 µM with HS 578T breast. In addition, the TGI with M14 melanoma, in the assay on NCI-H226 lung, in the assay on RXF 393 renal, in the assay on SK-MEL-5 melanoma, in the assay with SK-OV-3 ovarian and in the assay with SN12C renal was over 100 µM throughout. Also, the TGI in the assay with SNB-75 CNS, in the assay on T-47D breast and in the assay on UACC-257 melanoma was over 100 µM in each case.

In the case of `Cc1ccc(S(=O)(=O)NC(=O)C2=C3SCCN3C(=O)N(S(=O)(=O)c3ccc(C)cc3)C2c2ccccc2)cc1` (stereo not drawn), the TGI with A498 renal was over 100 µM; in the assay on ACHN renal, over 100 µM; with CAKI-1 renal, over 100 µM; in the assay on COLO 205 colon it was 43.6 µM; with HCT-15 colon it was over 100 µM; with HOP-62 NSCLC it was over 100 µM. For the same compound, the TGI in the assay on HS 578T breast is over 100 µM; in the assay on M14 melanoma, over 100 µM; in the assay on NCI-H226 lung, over 100 µM; in the assay on OVCAR-5 ovarian, over 100 µM; with RXF 393 renal, 78.7 µM; in the assay with SK-OV-3 ovarian, 66.8 µM. The TGI with SN12C renal, in the assay with SNB-75 CNS, in the assay on T-47D breast and with UACC-257 melanoma was over 100 µM each time.

With `COC(=O)Nc1nc2ccc(NC(=O)c3ccc(I)cc3)cc2[nH]1`, the TGI with A498 renal, in the assay on ACHN renal, in the assay with CAKI-1 renal, in the assay with COLO 205 colon, in the assay with HCT-15 colon and with HOP-62 NSCLC was over 100 µM in each case. Besides, the TGI with HS 578T breast, in the assay on M14 melanoma, in the assay on NCI-H226 lung, in the assay with OVCAR-5 ovarian, in the assay on RXF 393 renal and in the assay with SK-MEL-5 melanoma was over 100 µM in each case. Moreover, the TGI with SK-OV-3 ovarian, with SN12C renal, in the assay with SNB-75 CNS, with T-47D breast and in the assay on UACC-257 melanoma was over 100 µM in each case.

On to `CCN(CC)C(=O)CCN1CC1`, for which the TGI in the assay on A498 renal, in the assay on ACHN renal, with CAKI-1 renal, in the assay on COLO 205 colon, with HCT-15 colon and in the assay on HOP-62 NSCLC was over 10 µM each time. In addition, the TGI in the assay with HS 578T breast, in the assay with M14 melanoma, in the assay on NCI-H226 lung, with OVCAR-5 ovarian, in the assay with RXF 393 renal and in the assay with SK-MEL-5 melanoma was over 10 µM in each case. Further, the TGI with SK-OV-3 ovarian, in the assay with SN12C renal, with SNB-75 CNS, with T-47D breast and in the assay on UACC-257 melanoma was over 10 µM throughout.

In the case of `NCCSCCC(=O)O`, the TGI in the assay with A498 renal was 99.5 µM; in the assay on ACHN renal, over 56.1 µM; in the assay on CAKI-1 renal it was over 100 µM; in the assay with COLO 205 colon it was over 74.3 µM; in the assay on HCT-15 colon, over 100 µM; with HOP-62 NSCLC, over 100 µM. The TGI in the assay with HS 578T breast was over 100 µM; in the assay with M14 melanoma, over 100 µM; with NCI-H226 lung it was over 100 µM; in the assay on OVCAR-5 ovarian it was over 100 µM; in the assay on RXF 393 renal, over 100 µM; in the assay with SK-MEL-5 melanoma, over 85.3 µM. Also, the TGI in the assay with SK-OV-3 ovarian was over 100 µM; in the assay on SN12C renal, over 100 µM; in the assay with SNB-75 CNS, over 92.6 µM; in the assay on T-47D breast it was over 84.2 µM; in the assay on UACC-257 melanoma, over 100 µM.

For the compound `CC(C)Oc1cccc(N2C(Nc3ccccc3)=Nc3ccncc3S2(=O)=O)c1`, the TGI is 79.9 µM in the assay on A498 renal; 84.8 µM in the assay on ACHN renal; over 100 µM in the assay with CAKI-1 renal; 28.8 µM in the assay with COLO 205 colon; 75.5 µM in the assay on HCT-15 colon; over 100 µM in the assay with HOP-62 NSCLC. Further, the TGI in the assay with HS 578T breast was over 100 µM; with M14 melanoma, over 100 µM; with NCI-H226 lung it was 83.2 µM; in the assay on OVCAR-5 ovarian, over 100 µM; with RXF 393 renal it was 95.6 µM; in the assay with SK-MEL-5 melanoma it was 26.6 µM. For the same compound, the TGI with SK-OV-3 ovarian is over 100 µM; in the assay on SN12C renal, over 100 µM; in the assay with SNB-75 CNS, over 100 µM; in the assay with T-47D breast it was 90.1 µM; in the assay with UACC-257 melanoma, 50.4 µM.
